Assay results: patent US12258337B2, “Bicyclic CX3CR1 receptor agonists” (Board of Regents, The University of Texas System, priority 2019, dated 2025)

Experiments:
Assay type in all cases: cell-based
mCX3CR1 = target: T1, mCX3CR1 (Mus musculus, UniProt Q9Z0D9); experiment: Ga16 assay, CX3CR1 agonism, Ca2+ sensitive photo-protein readout (FLIPRTETRA); settings: mouse CX3CR1 cell line
T1 construct: expressed in transfected cells; stably expresses a Ca2+ sensitive photo-protein
T1 sequence (Q9Z0D9 1-354): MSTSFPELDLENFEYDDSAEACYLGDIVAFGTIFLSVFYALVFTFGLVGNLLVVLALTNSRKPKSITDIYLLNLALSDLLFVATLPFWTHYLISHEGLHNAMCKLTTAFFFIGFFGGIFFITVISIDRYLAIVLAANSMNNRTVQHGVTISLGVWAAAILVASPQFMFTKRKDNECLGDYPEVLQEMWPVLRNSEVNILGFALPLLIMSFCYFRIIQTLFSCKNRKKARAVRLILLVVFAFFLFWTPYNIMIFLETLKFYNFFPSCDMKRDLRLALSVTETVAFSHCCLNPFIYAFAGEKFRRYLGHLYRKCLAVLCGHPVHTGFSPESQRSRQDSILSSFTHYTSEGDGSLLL
Protocol: (§1) Compounds (as well as stereoisomer(s) thereof and/or salt(s) thereof) were tested for CX3CR1 agonism in a cell based assay with fluorescent readout in Agonist Mode in dose response in quadruplicate with intra-plate modality).
(§2) Buffers and reagents. PBS (D-PBS without calcium and magnesium; EuroClone); Trypsin (Trypsin 0.05%, EDTA 0.02% in PBS; EuroClone); DMSO (Sigma); Standard tyrode buffer: in-house solution (130 mM NaCl, 5 mM KCl, 2 mM CaCl2), 1 mM MgCl2, 5 mM NaHCO3, 20 mM HEPES in water at pH 7.4; sterile filtered); Coelenterazine, native (Biosynth); stock 10 mM; Agonist: Recombinant Human Fractalkine (CX3CL1) (PeproTech); stock: 10 μM in standard tyrode buffer+BSA 0.1%; stored at −20° C.
(§3) Cell line. Human (hCX3CR1), mouse (mCX3CR1), and rat (rCX3CR1) were used for the assay.
(§4) Assay protocol. Experiments ere performed in 384 MTP format. Cells were seeded at 7,500 cells/well in 25 μl/well complete growth medium without selection antibiotics in 384-well plates. Twenty-four hours later, cells ere assayed for the response to various compounds using the Ca^2+ sensitive photo-protein stably expressed in the cells as readout.
(§5) The experiment was performed in a 384-well format according to the following procedure: • 24h after seeding, pre-incubate the cells at room temperature for 1 hour. • Then remove the culture medium. • Load cells with 20 μL/well of standard tyrode buffer+10 μM ceolenterazine. • Incubate cell plates for 3 hours at RT. • Inject 10 μL/w of 3× concentrated test compounds and controls in assay buffer at the FLIPRTETRA and monitor the kinetic response over a period of 90 seconds.
(§6) Data from FLIPRTETRA measurements were analyzed with the Genedata Screener© software. The following examples are meant to illustrate, but in no way to limit, the claimed invention.

rCX3CR1 = target: T2, rCX3CR1 (Rattus norvegicus, UniProt P35411); experiment: as above; settings: rat CX3CR1 cell line
T2 construct: expressed in transfected cells; stably expresses a Ca2+ sensitive photo-protein
T2 sequence (P35411 1-354): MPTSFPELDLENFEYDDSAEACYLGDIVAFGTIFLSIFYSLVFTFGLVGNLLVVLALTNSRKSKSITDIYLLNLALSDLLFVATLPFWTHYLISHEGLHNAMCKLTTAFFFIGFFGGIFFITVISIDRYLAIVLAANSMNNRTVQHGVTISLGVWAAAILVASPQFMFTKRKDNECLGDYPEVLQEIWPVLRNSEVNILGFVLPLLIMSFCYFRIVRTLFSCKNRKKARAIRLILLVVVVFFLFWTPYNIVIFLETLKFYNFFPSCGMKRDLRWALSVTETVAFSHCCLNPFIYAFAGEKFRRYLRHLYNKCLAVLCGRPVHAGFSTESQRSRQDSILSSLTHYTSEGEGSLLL
Protocol: as §1, §2, §3, §4, §5, §6

hCX3CR1 [1] = target: T3, hCX3CR1 (Homo sapiens, UniProt P49238); experiment: as above; design: expressed in transfected cells; stably expresses a Ca2+ sensitive photo-protein; settings: human CX3CR1 cell line
T3 sequence (P49238 1-355): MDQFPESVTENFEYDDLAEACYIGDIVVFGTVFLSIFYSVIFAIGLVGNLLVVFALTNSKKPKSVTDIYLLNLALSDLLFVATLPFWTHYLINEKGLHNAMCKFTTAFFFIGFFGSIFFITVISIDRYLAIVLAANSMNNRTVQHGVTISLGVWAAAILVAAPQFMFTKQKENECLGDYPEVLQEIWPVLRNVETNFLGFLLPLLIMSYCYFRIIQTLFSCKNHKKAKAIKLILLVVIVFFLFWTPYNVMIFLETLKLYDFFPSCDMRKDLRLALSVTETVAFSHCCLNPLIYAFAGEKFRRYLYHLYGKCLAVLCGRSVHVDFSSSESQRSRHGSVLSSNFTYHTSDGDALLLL
Protocol: as §1, §2, §3, §4, §5, §6

hCX3CR1 [2] = target: T3, hCX3CR1; experiment: Suchi5 assay (HEK/NatClytin/CNG/Suchi5 transiently transfected hCX3CR1, Fluo-8 Ca2+ readout); design: expressed in transfected cells; stably expresses a Ca2+ sensitive photo-protein; settings: Suchi5 assay, HEK/NatClytin/CNG/Suchi5 transfected with hCX3CR1; read-out: hCX3CR1 agonism EC50
Protocol: Buffers and reagents. PBS (D-PBS without calcium and magnesium; EuroClone); Trypsin (Trypsin 0.05%, EDTA 0.02% in PBS; EuroClone); Opti-MEM medium (Thermo Fisher); DMSO (Sigma); Standard tyrode buffer: in-house solution (130 mM NaCl, 5 mM KCl, 2 mM CaCl2), 1 mM MgCl2, 5 mM NaHCO3, 20 mM HEPES in water at pH 7.4; sterile filtered); Screen Quest™ Fluo-8 No Wash Calcium Assay Kit (AAt Bioquest®); Lipofectamine® 2000 Reagent (Thermo Fisher); Agonist: Recombinant Human Fractalkine (CX3CL1) (PeproTech); stock: 10 μM in standard Tyrode buffer/BSA 01%; stored at −20° C.
Cell line. The final cell line for CX3CR1-Suchi5 assay is HEK/NatClytin/CNG/Suchi5 transiently transfected hCX3CR1 cDNA. In this cell line native Gαi signaling is switched to Gαq pathway thanks to the overexpression of a Gαiq chimeric G protein (called Suchi5) to direct Gαi activation towards Ca^2+ release for measurement.
Assay protocol. Experiments are performed in 384 MTP format. Transiently transfected cells are seeded at 20,000 cells/well in 25 μl/well Opti-MEM medium without selection antibiotics in 384-well plates. 4-5-hours later 25 μL/well of complete medium with 20% of FBS are added to the cells. Twenty-four hours later, cells are assayed for the response to various compounds using a fluorescent Ca^2+ sensitive dye (FLUO8-No Wash Dye) as readout.
The experiment is performed in a 384-well format according to the following procedure: • 24h after seeding, remove the culture medium. • Load cells with 20 μL/well of 0.5X FLUO-8 No Wash Dye diluted in assay buffer. • Incubate cell plates for 1 hour at RT. • Inject 10 μL/w of 3× concentrated test compounds and controls in assay buffer at the FLIPRTETRA and monitor the kinetic response over a period of 90 seconds.
Data from FLIPRTETRA measurements are analyzed with the Genedata Screener© software.

Row | SMILES | EC50 (mCX3CR1) | EC50 (rCX3CR1) | EC50 (hCX3CR1 [1]) | EC50 (hCX3CR1 [2])
1 | CC1(C)CN(CC2(CNC(=O)c3cc4c(s3)CCCCCC4)CCC2)CCC1O (centres unmarked) [Example 58, N-[[1-[(4-hydroxy-3,3-dimethylpiperidin-1-yl)methyl]cyclobutyl]methyl]-4,5,6,7,8,9-hexahydrocycloocta[b]thiophene-2-carboxamide] | 19.1 µM | 16.8 µM | 21.9 µM | 5 µM
2 | O=C(NCC1(CN2CCC(O)C2)CCCC1)c1cc2c(s1)CCCCCC2 (single isomer, unassigned) [Example 63, N-[[1-[(3-hydroxypyrrolidin-1-yl)methyl]cyclopentyl]methyl]-4,5,6,7,8,9-hexahydrocycloocta[b]thiophene-2-carboxamide] | 13.5 µM | 9.7 µM | 9.8 µM | 9.6 µM
3 | COC1(C)CCN(CC2(CNC(=O)c3cc4c(s3)CCCCCC4)CCCC2)CC1 [Example 53, N-[[1-[(4-methoxy-4-methylpiperidin-1-yl)methyl]cyclopentyl]methyl]-4,5,6,7,8,9-hexahydrocycloocta[b]thiophene-2-carboxamide] | 48.6 µM | 33.7 µM | 8.6 µM | 11.8 µM
4 | CC(C)OC1CCN(CC2(CNC(=O)c3cc4c(s3)CCCCCC4)CCC2)CC1 [Example 51, N-[[1-[(4-propan-2-yloxypiperidin-1-yl)methyl]cyclobutyl]methyl]-4,5,6,7,8,9-hexahydrocycloocta[b]thiophene-2-carboxamide] | 15.4 µM | 34.8 µM | 15.7 µM | 18.4 µM
5 | COC1CCCN(CC2(CNC(=O)c3cc4c(s3)CCCCCC4)CCC2)C1 (centres unmarked) [Example 55, N-({1-[(3-Methoxypiperidin-1-yl)methyl]cyclobutyl}methyl)-4H,5H,6H,7H,8H,9H-cycloocta[b]thiophene-2-carboxamide] | 8.1 µM | 12.1 µM | 13.7 µM | 7.1 µM
6 | CC(C)OC1CCCN(CC2(CNC(=O)c3cc4c(s3)CCCCCC4)CCC2)C1 (centres unmarked) [Example 50, N-[[1-[(3-propan-2-yloxypiperidin-1-yl)methyl]cyclobutyl]methyl]-4,5,6,7,8,9-hexahydrocycloocta[b]thiophene-2-carboxamide] | 45.7 µM | 43.5 µM | 15.8 µM | 16.1 µM
7 | COC1CCCN(CC(C)(C)CNC(=O)c2cc3c(s2)CCCCCC3)C1 (centres unmarked) [Example 54, N-[3-(3-methoxypiperidin-1-yl)-2,2-dimethylpropyl]-4,5,6,7,8,9-hexahydrocycloocta[b]thiophene-2-carboxamide] | > 100 µM | > 100 µM | 16.3 µM | 17.4 µM
8 | CC1(O)CCCN(CC2(CNC(=O)c3cc4c(s3)CCCCCC4)CCC2)C1 (centres unmarked) [Example 59, N-[[1-[(3-hydroxy-3-methylpiperidin-1-yl)methyl]cyclobutyl]methyl]-4,5,6,7,8,9-hexahydrocycloocta[b]thiophene-2-carboxamide] | 9 µM | 9.2 µM | 11.9 µM | 1 µM
9 | CC(C)(CNC(=O)c1cc2c(s1)CCCCCC2)CN1CCC(C)(O)CC1 [Example 67, N-[3-(4-hydroxy-4-methylpiperidin-1-yl)-2,2-dimethylpropyl]-4,5,6,7,8,9-hexahydrocycloocta[b]thiophene-2-carboxamide] | 87.1 µM | 78.9 µM | 18.3 µM | 14.4 µM
10 | COC1CCN(CC(C)(C)CNC(=O)c2cc3c(s2)CCCCCC3)CC1 [Example 47, N-[3-(4-methoxypiperidin-1-yl)-2,2-dimethylpropyl]-4,5,6,7,8,9-hexahydrocycloocta[b]thiophene-2-carboxamide] | 71.5 µM | 19.8 µM | 12.6 µM | 16.4 µM

Next, values leading:

Row | EC50 (mCX3CR1) | EC50 (rCX3CR1) | EC50 (hCX3CR1 [1]) | EC50 (hCX3CR1 [2]) | SMILES
11 | 41.6 µM | 18.7 µM | 14.3 µM | 14.1 µM | O=C(NCC1(CN2CCC(O)CC2)CCCOC1)c1cc2c(s1)CCCCCC2 (centres unmarked) [Example 45, N-[[3-[(4-hydroxypiperidin-1-yl)methyl]oxan-3-yl]methyl]-4,5,6,7,8,9-hexahydrocycloocta[b]thiophene-2-carboxamide]
12 | 8.7 µM | 6.6 µM | 10 µM | 8.9 µM | COC1CCN(CC2(CNC(=O)c3cc4c(s3)CCCCCC4)CCC2)CC1 [Example 49, N-[[1-[(4-methoxypiperidin-1-yl)methyl]cyclobutyl]methyl]-4,5,6,7,8,9-hexahydrocycloocta[b]thiophene-2-carboxamide]
13 | 9.4 µM | 7.4 µM | 8.6 µM | 2.5 µM | O=C(NCC1(CN2CCC(O)CC2)CCC1)c1cc2c(s1)CCCCCC2 [Example 41, N-[[1-[(4-hydroxypiperidin-1-yl)methyl]cyclobutyl]methyl]-4,5,6,7,8,9-hexahydrocycloocta[b]thiophene-2-carboxamide]
14 | 20.4 µM | 11.4 µM | 16 µM | 7.2 µM | O=C(NCC1(CN2CCC(O)C2)CCC1)c1cc2c(s1)CCCCCC2 (centres unmarked) [Example 66, N-[[1-[(3-hydroxypyrrolidin-1-yl)methyl]cyclobutyl]methyl]-4,5,6,7,8,9-hexahydrocycloocta[b]thiophene-2-carboxamide]
